{"source": "patent US11986474B1", "about": "“Methods for treating heart failure by administering cardiac sarcomere activators” (Cytokinetics, Incorporated, priority 2023, dated 2024)", "key": {"[1]": {"test_system": "patients with heart failure with reduced ejection fraction", "assay": "GALACTIC-HF phase 3 clinical trial, outcomes by titrated dose group", "type": "in vivo, human", "conditions": "for Hazard Ratio, CV Death / Hazard Ratio, Primary Endpoint: OM vs PBO", "experimental": "In a phase 3 clinical trial, Global Approach to Lowering Adverse Cardiac Outcomes through Improving Contractility in Heart Failure (GALACTIC-HF), the following dosing regimen was used to assess treatment effect with omecamtiv mecarbil in patients with heart failure with reduced ejection fraction. At the initiation of treatment, a first dose level of 25 mg twice daily was orally administered to subjects randomized to receive omecamtiv mecarbil. At study visit week 2, a predose blood sample was collected. At week 4, subjects with week 2 omecamtiv mecarbil predose plasma concentration of less than 200 ng/mL would increase their dose level to 50 mg twice daily; subjects with week 2 plasma concentrations greater than or about 200 ng/mL but less than 300 ng/mL would increase their dose level to 37.5 mg twice daily; subjects with week 2 plasma concentrations greater than or about 300 ng/mL but less than 1000 ng/mL would maintain a dose level of 25 mg twice daily; and subjects with plasma concentration greater than or about 1000 ng/mL would start administration of placebo twice daily. At weeks 6, a predose blood sample was collected to confirm plasma concentration achieved and assess if changes to the dose should be made. […] The dosing regimen used in the GALACTIC-HF study was associated with reduced risk of heart failure outcomes and a very low incidence of excessive concentrations of omecamtiv mecarbil (e.g., plasma concentration over 1000 ng/mL). Treatment results were described in, for example, Cardiac Myosin Activation with Omecamtiv Mecarbil in Systolic Heart Failure (Teerlink et al., N. Engl. J. Med., 2021, 384; 2) and NCT02929329.\n(§1) In a phase 3 clinical trial, Global Approach to Lowering Adverse Cardiac Outcomes through Improving Contractility in Heart Failure (GALACTIC-HF), all eligible participants were randomized 1:1 to oral administration of either placebo or omecamtiv mecarbil (pharmacokinetic-guided dosing: 25, 37.5 or 50 mg) twice daily. Pre-dose plasma concentrations of omecamtiv mecarbil were measured at weeks 2 and 6 with respective dose adjustments on weeks 4 and 8. The patient and investigator were blinded to the plasma concentrations and dispensed dose.\n(§2) Participants randomized to omecamtiv mecarbil were started at the lowest dose of 25 mg twice daily. […] At the end of Week 8, 28.6% of participants were on 25 mg BID (including participants whose plasma concentration results were not available in time for any dose titration visit or participant compliance with dosing was not affirmatively documented by the investigator), which was higher than the anticipated proportion (4.1%) based on population PK modeling. In participants who completed the dosing algorithm as intended and were titrated to 37.5 or 50 mg BID, mean omecamtiv mecarbil plasma concentrations were higher than those in the 25 mg BID dose group. Participants titrated to doses of 37.5 or 50 mg BID tended to have reduced risk of the primary composite endpoint and cardiovascular death compared to those at a dose of 25 mg BID, as shown in Table 2 below."}, "[2]": {"test_system": "patients with chronic heart failure with reduced ejection fraction", "conditions": "cited from earlier work"}, "[3]": {"test_system": "patients with heart failure with reduced ejection fraction", "conditions": "randomized, placebo-controlled phase 3 clinical trial; cited from earlier work"}, "[4]": {"test_system": "cardiomyocyte calcium transient", "conditions": "cited from earlier work"}, "[5]": {"assay": "GALACTIC-HF plasma concentration of omecamtiv mecarbil (PK-guided dosing)", "type": "in vivo", "conditions": "Week 8 visit (Week 6 concentration)", "experimental": "as §1, §2\nA summary of participants by dose group at Week 4 (dose selection determined by the Week 2 concentrations of omecamtiv mecarbil), at Week 8 (dose selection determined by the Week 6 concentrations of omecamtiv mecarbil), and the final dose at Week 12, is provided in Table 3. Overall, the proportions of participants receiving each of the omecamtiv mecarbil doses remained generally consistent over time. At the Week 8 visit, 3.0% of participants had their doses adjusted from 50 to 25 mg BID and 1.1% from 37.5 to 25 mg BID. […]"}, "[6]": {"conditions": "25 mg BID dose group, Cox Model Adjusting for Significant Baseline Covariates"}, "[7]": {"conditions": "25 mg BID dose group, Planned Primary Analysis Cox Model"}, "[8]": {"conditions": "37.5 mg BID dose group, Cox Model Adjusting for Significant Baseline Covariates"}, "[9]": {"conditions": "37.5 mg BID dose group, Planned Primary Analysis Cox Model"}, "[10]": {"conditions": "50 mg BID dose group, Cox Model Adjusting for Significant Baseline Covariates"}, "[11]": {"conditions": "50 mg BID dose group, Planned Primary Analysis Cox Model"}, "[12]": {"conditions": "patients with chronic HFrEF, treatment for 20 weeks"}}, "data": [{"compound": "COC(=O)N1CCN(Cc2cccc(NC(=O)Nc3ccc(C)nc3)c2F)CC1", "note": "[omecamtiv mecarbil, methyl 4-(2-fluoro-3-(3-(6-methylpyridin-3-yl)ureido)benzyl)piperazine-1-carboxylate]", "values": [{"measurement": "Hazard Ratio, CV Death", "setting": "[1]; [6]", "value": 1.11}, {"measurement": "Hazard Ratio, Primary Endpoint", "setting": "[1]; [6]", "value": 0.93}, {"measurement": "Hazard Ratio, CV Death", "setting": "[1]; [7]", "value": 1.18}, {"measurement": "Hazard Ratio, Primary Endpoint", "setting": "[1]; [7]", "value": 1.00}, {"measurement": "Primary Endpoint, participants n/N", "setting": "[1]; 37.5 mg BID dose group, OM arm", "value": "OM (225/602) vs PBO (1,477/3,897)"}, {"measurement": "Hazard Ratio, CV Death", "setting": "[1]; [8]", "value": 0.94}, {"measurement": "Hazard Ratio, Primary Endpoint", "setting": "[1]; [8]", "value": 0.90}, {"measurement": "Hazard Ratio, CV Death", "setting": "[1]; [9]", "value": 1.00}, {"measurement": "Hazard Ratio, Primary Endpoint", "setting": "[1]; [9]", "value": 0.93}, {"measurement": "Hazard Ratio, CV Death", "setting": "[1]; [10]", "value": 0.98}, {"measurement": "Hazard Ratio, Primary Endpoint", "setting": "[1]; [10]", "value": 0.89}, {"measurement": "Hazard Ratio, CV Death", "setting": "[1]; [11]", "value": 0.91}, {"measurement": "Hazard Ratio, Primary Endpoint", "setting": "[1]; [11]", "value": 0.87}, {"measurement": "cardiac performance", "setting": "[2]; early clinical studies, short-term intravenous administration", "value": "improved"}, {"measurement": "plasma concentration above which the risk of cardiac ischemic events is increased", "setting": "[2]; likely due to shortening of diastole and decreased coronary perfusion", "value": "exceeding 1200 ng/mL"}, {"measurement": "left ventricular systolic and diastolic volumes", "setting": "[2]; [12]", "value": "decreased"}, {"measurement": "left ventricular systolic function", "setting": "[2]; [12]", "value": "increased"}, {"measurement": "natriuretic peptide concentrations and heart rate", "setting": "[2]; [12]", "value": "reduced"}, {"measurement": "relative risk of a heart-failure event or death from cardiovascular causes vs placebo", "setting": "[3]", "value": "lower relative risk"}, {"measurement": "risk of myocardial ischemic events, ventricular arrhythmias, or death from cardiovascular causes or any cause", "setting": "[3]", "value": "without evidence of an increase"}, {"measurement": "effect on intracellular calcium transients", "setting": "[4]", "value": "no effect"}, {"measurement": "participants with down titration due to plasma concentration exceeding 750 ng/mL, number (%)", "setting": "[5]", "value": "9 (0.22%)"}, {"measurement": "participants with down titration, plasma concentration in the 750 to <1,000 ng/mL range", "setting": "[5]", "value": 8, "unit": "participants"}, {"measurement": "concentration at 6 weeks", "setting": "[5]; human, plasma, oral, read-out: plasma concentration of the 1 down-titrated participant above 1,000 ng/mL", "value": 1000, "unit": "ng/mL"}]}]}
